# Earlier results in US20130202712A1, “Compositions And Methods For Treating Or Preventing Immuno-Inflammatory Disease” (VINDICO NANOBIO TECHNOLOGY, INC., priority 2010, published 2013).
# Conditions: free resveratrol
smiles,measurement,value
"Oc1ccc(C=Cc2cc(O)cc(O)c2)cc1 [resveratrol, 3,5,4′-trihydroxystilbene]",Solubility in water,very low solubility in water
